Tests used:
bedstraw = experiment: Test B pre/postemergence bedstraw; format: in vivo, Galium aparine
Outline: (§1)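 Test chemicals in a non-phytotoxic solvent mixture with surfactant were sprayed preemergence onto planted seeds and postemergence onto plants 2 to 18 cm tall (1- to 4-leaf stage). After twelve to sixteen days in a greenhouse, injury was visually rated against untreated controls from 0 (no effect) to 10 (complete control).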

blackgrass = experiment: Test B pre/postemergence blackgrass; format: in vivo, Alopecurus myosuroides
Outline: as §1

surinam grass = experiment: Test B pre/postemergence surinam grass; format: in vivo, Brachiaria decumbens
Outline: as §1

corn = experiment: Test B pre/postemergence corn; format: in vivo, Zea mays
Outline: as §1

crabgrass = experiment: Test B pre/postemergence crabgrass; format: in vivo, Digitaria sanguinalis
Outline: as §1

giant foxtail = experiment: Test B pre/postemergence giant foxtail; format: in vivo, Setaria faberii
Outline: as §1

morningglory = experiment: Test B pre/postemergence morningglory; format: in vivo, Ipomoea hederacea
Outline: as §1

rape = experiment: Test B pre/postemergence rape; format: in vivo, Brassica napus
Outline: as §1

soybean = experiment: Test B pre/postemergence soybean; format: in vivo, Glycine max
Outline: as §1

velvetleaf = experiment: Test B pre/postemergence velvetleaf; format: in vivo, Abutilon theophrasti
Outline: as §1

wheat = experiment: Test B pre/postemergence wheat; format: in vivo, Triticum aestivum
Outline: as §1

wild oat = experiment: Test B pre/postemergence wild oat; format: in vivo, Avena fatua
Outline: as §1

purple nutsedge = experiment: Test B pre/postemergence purple nutsedge; format: in vivo, Cyperus rotundus
Outline: as §1

rice = experiment: Test B flood test rice; format: in vivo, Oryza sativa
Outline: (§2)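 Plants were grown to the 2-leaf stage before treatment with test chemical, then held in a greenhouse for twelve to sixteen days. Injury was visually rated against untreated controls on a 0–10 scale, where 0 is no effect and 10 is complete control.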

smallflower flatsedge = experiment: Test B flood test smallflower flatsedge; format: in vivo, Cyperus difformis
Outline: as §2

duck salad = experiment: Test B flood test duck salad; format: in vivo, Heteranthera limosa
Outline: as §2

[1] = Postemergence, Rate 62 g/ha, scale 0 to 10, 0 is no effect, 10 is complete control
[2] = Postemergence, Rate 250 g/ha, scale 0 to 10, 0 no effect, 10 complete control
[3] = Preemergence, Rate 31 g/ha, visual rating, scale 0 to 10 (0 no effect, 10 complete control)
[4] = Preemergence, Rate 62 g/ha, scale 0 to 10, 0 is no effect, 10 is complete control
[5] = Preemergence, Rate 125 g/ha, scale 0 to 10 (0 no effect, 10 complete control)
[6] = Preemergence, Rate 250 g/ha, scale of 0 to 10 where 0 is no effect and 10 is complete control
[7] = Rate 31 g/ha, Postemergence, scale 0 to 10
[8] = Rate 125 g/ha, Postemergence, scale 0 to 10, 0 no effect, 10 complete control
[9] = Rate 31 g/ha, Postemergence section (flood test species), scale 0 to 10
[10] = Rate 125 g/ha, Postemergence section (flood test species), scale 0 to 10, 0 no effect, 10 complete control
[11] = flood test, listed under Postemergence, Rate 250 g/ha, scale 0 to 10, 0 no effect, 10 complete control

With `CCN(C(=O)n1oc(=O)n(-c2ccc(F)cc2F)c1=O)C1CCCCC1` [Compound 23] the “Bedstraw plant response rating” value (bedstraw; [1]) was 0, the “Bedstraw plant response rating” value (bedstraw; [2]) was 0 and the “Bedstraw plant response rating” value (bedstraw; [3]) was 0. For the same compound, the “Plant response rating, Bedstraw” value (bedstraw; [4]) was 0, the “Plant response rating, Bedstraw” value (bedstraw; [5]) was 0 and the “Plant response rating, Bedstraw” value (bedstraw; [6]) was 0. The “Bedstraw plant response rating” value (bedstraw; [7]) was 0, the “Bedstraw plant response rating” value (bedstraw; [8]) was 0 and the “Blackgrass plant response rating” value (blackgrass; [1]) was 0. The “Blackgrass plant response rating” value (blackgrass; [2]) was 0, the “Blackgrass plant response rating” value (blackgrass; [3]) was 0 and the “Plant response rating, Blackgrass” value (blackgrass; [4]) was 0. For the same compound, the “Plant response rating, Blackgrass” value (blackgrass; [5]) was 1, the “Plant response rating, Blackgrass” value (blackgrass; [6]) was 2 and the “Blackgrass plant response rating” value (blackgrass; [7]) was 0. The “Blackgrass plant response rating” value (blackgrass; [8]) was 0, the “B. signalgrass plant response rating” value (surinam grass; [1]) was 0 and the “B. signalgrass plant response rating” value (surinam grass; [2]) was 0. For the same compound, the “B. signalgrass plant response rating” value (surinam grass; [3]) was 0, the “Plant response rating, B. signalgrass” value (surinam grass; [4]) was 0 and the “Plant response rating, B. signalgrass” value (surinam grass; [5]) was 0. For the same compound, the “Plant response rating, B. signalgrass” value (surinam grass; [6]) was 0, the “B. signalgrass plant response rating” value (surinam grass; [7]) was 0 and the “B. signalgrass plant response rating” value (surinam grass; [8]) was 0. For the same compound, the “Corn plant response rating” value (corn; [1]) was 0, the “Corn plant response rating” value (corn; [2]) was 0 and the “Corn plant response rating” value (corn; [3]) was 0. For the same compound, the “Plant response rating, Corn” value (corn; [4]) was 0, the “Plant response rating, Corn” value (corn; [5]) was 0 and the “Plant response rating, Corn” value (corn; [6]) was 0. The “Corn plant response rating” value (corn; [7]) was 0, the “Corn plant response rating” value (corn; [8]) was 0 and the “Crabgrass plant response rating” value (crabgrass; [1]) was 0. The “Crabgrass plant response rating” value (crabgrass; [2]) was 6, the “Crabgrass plant response rating” value (crabgrass; [3]) was 0 and the “Plant response rating, Crabgrass” value (crabgrass; [4]) was 3. For the same compound, the “Plant response rating, Crabgrass” value (crabgrass; [5]) was 3, the “Plant response rating, Crabgrass” value (crabgrass; [6]) was 3 and the “Crabgrass plant response rating” value (crabgrass; [7]) was 0. The “Crabgrass plant response rating” value (crabgrass; [8]) was 1, the “Giant foxtail plant response rating” value (giant foxtail; [1]) was 0 and the “Giant foxtail plant response rating” value (giant foxtail; [2]) was 2. For the same compound, the “Giant foxtail plant response rating” value (giant foxtail; [3]) was 1, the “Plant response rating, Giant foxtail” value (giant foxtail; [4]) was 2 and the “Plant response rating, Giant foxtail” value (giant foxtail; [5]) was 2. The “Plant response rating, Giant foxtail” value (giant foxtail; [6]) was 3, the “Giant foxtail plant response rating” value (giant foxtail; [7]) was 0 and the “Giant foxtail plant response rating” value (giant foxtail; [8]) was 2. For the same compound, the “Morningglory plant response rating” value (morningglory; [1]) was 1, the “Morningglory plant response rating” value (morningglory; [2]) was 10 and the “Morningglory plant response rating” value (morningglory; [3]) was 0. The “Plant response rating, Morningglory” value (morningglory; [4]) was 0, the “Plant response rating, Morningglory” value (morningglory; [5]) was 0 and the “Plant response rating, Morningglory” value (morningglory; [6]) was 0. The “Morningglory plant response rating” value (morningglory; [7]) was 0, the “Morningglory plant response rating” value (morningglory; [8]) was 8 and the “Rape plant response rating” value (rape; [1]) was 0. The “Rape plant response rating” value (rape; [2]) was 0, the “Rape plant response rating” value (rape; [3]) was 0 and the “Plant response rating, Rape” value (rape; [4]) was 0. The “Plant response rating, Rape” value (rape; [5]) was 0, the “Plant response rating, Rape” value (rape; [6]) was 0 and the “Rape plant response rating” value (rape; [7]) was 0. The “Rape plant response rating” value (rape; [8]) was 0, the “Soybean plant response rating” value (soybean; [1]) was 3 and the “Soybean plant response rating” value (soybean; [2]) was 4. For the same compound, the “Soybean plant response rating” value (soybean; [3]) was 0, the “Plant response rating, Soybean” value (soybean; [4]) was 0 and the “Plant response rating, Soybean” value (soybean; [5]) was 0. For the same compound, the “Plant response rating, Soybean” value (soybean; [6]) was 0, the “Soybean plant response rating” value (soybean; [8]) was 3 and the “Velvetleaf plant response rating” value (velvetleaf; [1]) was 0. For the same compound, the “Velvetleaf plant response rating” value (velvetleaf; [2]) was 0, the “Velvetleaf plant response rating” value (velvetleaf; [3]) was 0 and the “Plant response rating, Velvetleaf” value (velvetleaf; [4]) was 0. The “Plant response rating, Velvetleaf” value (velvetleaf; [5]) was 0, the “Plant response rating, Velvetleaf” value (velvetleaf; [6]) was 0 and the “Velvetleaf plant response rating” value (velvetleaf; [8]) was 0. For the same compound, the “Wheat plant response rating” value (wheat; [1]) was 0, the “Wheat plant response rating” value (wheat; [2]) was 0 and the “Wheat plant response rating” value (wheat; [3]) was 0. For the same compound, the “Plant response rating, Wheat” value (wheat; [4]) was 0, the “Plant response rating, Wheat” value (wheat; [5]) was 0 and the “Plant response rating, Wheat” value (wheat; [6]) was 0. For the same compound, the “Wheat plant response rating” value (wheat; [8]) was 0, the “Wild oats plant response rating” value (wild oat; [1]) was 0 and the “Wild oats plant response rating” value (wild oat; [2]) was 0. For the same compound, the “Wild oats plant response rating” value (wild oat; [3]) was 0, the “Plant response rating, Wild oats” value (wild oat; [5]) was 0 and the “Plant response rating, Wild oats” value (wild oat; [6]) was 0. The “Wild oats plant response rating” value (wild oat; [8]) was 0, the “Nutsedge plant response rating” value (purple nutsedge; [1]) was 0 and the “Nutsedge plant response rating” value (purple nutsedge; [2]) was 0. The “Nutsedge plant response rating” value (purple nutsedge; [3]) was 0, the “Plant response rating, Nutsedge” value (purple nutsedge; [4]) was 0 and the “Plant response rating, Nutsedge” value (purple nutsedge; [5]) was 0. The “Plant response rating, Nutsedge” value (purple nutsedge; [6]) was 0, the “Nutsedge plant response rating” value (purple nutsedge; [7]) was 0 and the “Nutsedge plant response rating” value (purple nutsedge; [8]) was 0. The “Rice plant response rating” value (rice; [1]) was 0, the “Rice plant response rating” value (rice; [9]) was 0 and the “Rice plant response rating” value (rice; [10]) was 0. For the same compound, the “Rice plant response rating” value (rice; [11]) was 0, the “S. Flatsedge plant response rating” value (smallflower flatsedge; [1]) was 0 and the “S. Flatsedge plant response rating” value (smallflower flatsedge; [10]) was 0. The “S. Flatsedge plant response rating” value (smallflower flatsedge; [11]) was 0, the “Ducksalad plant response rating” value (duck salad; [1]) was 0 and the “Ducksalad plant response rating” value (duck salad; [9]) was 0. For the same compound, the “Ducksalad plant response rating” value (duck salad; [10]) was 0 and the “Ducksalad plant response rating” value (duck salad; [11]) was 0.
